The IC50 is the concentration at which inhibition is half-maximal. Low values mean greater potency in that assay, high ones weaker potency in that assay.

SMILES strings stand for the structures.

The values below come from patent publication US20150038527A1, “FUROPYRIDINE DERIVATIVES” (Merck Patent GmbH, priority 2012, published 2015).

The target of this assay is T1, SYK (Homo sapiens, UniProt P43405).
T1 construct: 2.5 nM SYK, 400 nM Biotin-Aha-Aha-KEDPDYEWPSAKK and 10 μM ATP
In words: SYK Flash Plate Assay (enzyme assay). Type of assay: biochemical. As for the experimental part:
The kinase assay is performed either as 384-well Flashplate assay (for e.g. Topcount measurement) or as 384-well Image-Flashplate assay (for LEADseeker measurement).
2.5 nM SYK, 400 nM Biotin-Aha-Aha-KEDPDYEWPSAKK and 10 μM ATP (spiked with 0.3 μCi 33P-ATP/well) are incubated in a total volume of 50 μl (60 mM Hepes, 10 mM MgCl2, 1.2 mM Dithiothreitol, 0.02% Brij35, 0.1% BSA, pH 7.5) with or without test compound for 1 hours at 30° C. The reaction is stopped with 25 μl 200 mM EDTA. After 30 Min at 30° C. the liquid is removed and each well washed thrice with 100 μl 0.9% sodium chloride solution. Non-specific reaction is determined in presence of 0.1 μM Staurosporine. Radioactivity is measured with Topcount (when using Flashplates) or with LEADseeker (when using Image-Flashplates) respectively. Results (e.g. IC50-values) are calculated with program tools provided by the IT-department (e.g. Symyx Assay Explorer, Genedata Screener).

With `COc1ccc(C#N)cc1-c1cc2nccc(-c3cc[nH]n3)c2o1` [Compound A88, 4-methoxy-3-[7-(1H-pyrazol-3-yl)-furo[3,2-b]pyridin-2-yl]-benzonitrile], the IC50 is below 0.1 µM.

For the compound `COc1ccc(-c2nnn[nH]2)cc1-c1cc2nccc(-c3c(OC)cccc3OC)c2o1` [Compound A84, 7-(2,6-dimethoxy-phenyl)-2-[2-methoxy-5-(1H-tetrazol-5-yl)-phenyl]-furo[3,2-b]pyridine], the half-maximal inhibitory concentration (IC50) was below 0.1 µM.

Regarding `COc1cc(-c2cc3nccc(-c4cccc(C(=O)N[C@@H]5CCCC[C@@H]5NC(C)=O)c4)c3o2)cc(OC)c1OC` [Compound A34, N-((1R,2S)-2-acetylamino-cyclohexyl)-3-[2-(3,4,5-trimethoxy-phenyl)furo[3,2-b]pyridin-7-yl]-benzamide], the IC50 was in the range of 3 to 50 µM.

The compound `COc1cc(O)ccc1-c1cc2nccc(-c3ccc4[nH]cnc4c3)c2o1` [Compound A14, 4-[7-(1H-benzoimidazol-5-yl)-furo[3,2-b]pyridin-2-yl]-3-methoxy-phenol] gave an IC50 of 0.3 to 3 µM.

The compound `COc1cc(-c2cc3nccc(-c4ccc5ncn(CCN)c5c4)c3o2)cc(OC)c1OC` [Compound A8, 2-{6-[2-(3,4,5-trimethoxy-phenyl)-furo[3,2-b]pyridin-7-yl]-benzoimidazol-1-yl}-ethylamine] yielded a half-inhibitory concentration (IC50) of 0.3 to 3 µM.

On to `COc1cc(-c2cc3nccc(-c4nnc(CCN)o4)c3o2)cc(OC)c1OC` [Compound A102, 2-{5-[2-(3,4,5-trimethoxy-phenyl)-furo[3,2-b]pyridin-7-yl]-[1,3,4]oxadiazol-2-yl}-ethylamine], for which the IC50 was 3 to 50 µM.

In turn, `COc1ccc(-c2ncon2)cc1-c1cc2nccc(-c3cc[nH]n3)c2o1` [Compound A92, 2-(2-methoxy-5-[1,2,4]oxadiazol-3-yl-phenyl)-7-(1H-pyrazol-3-yl)-furo[3,2-b]pyridine] returned an IC50 below 0.1 µM.

For the compound `COc1cc(-c2cc3nccc(-c4cccc(C(=O)N[C@@H]5CCC[C@@H]5O)c4)c3o2)cc(OC)c1OC` [Compound A22, N-((1R,2S)-2-hydroxy-cyclopentyl)-3-[2-(3,4,5-trimethoxy-phenyl)-furo[3,2-b]pyridin-7-yl]-benzamide], the half-inhibitory concentration (IC50) was in the range of 3 to 50 µM.

As to `COc1cc(-c2cc3nccc(-c4cc[nH]c4)c3o2)cc(OC)c1OC` [Compound A83, 7-(1H-pyrrol-3-yl)-2-(3,4,5-trimethoxy-phenyl)-furo[3,2-b]pyridine], the concentration for half-maximal inhibition (IC50) was below 0.1 µM.

For the compound `COc1ccc(C(=O)NCCCN)cc1-c1ccnc2cc(-c3cc(OC)c(OC)c(OC)c3)oc12` [Compound A58, N-(3-amino-propyl)-4-methoxy-3-[2-(3,4,5-trimethoxy-phenyl)-furo[3,2-b]pyridin-7-yl]-benzamide], the IC50 lay in the range of 0.3 to 3 µM.

`COc1cc(OCCN)ccc1-c1cc2nccc(-c3cccc(C(=O)NCCO)c3)c2o1` [Compound A29, 3-{2-[4-(2-amino-ethoxy)-2-methoxy-phenyl]-furo[3,2-b]pyridin-7-yl}-N-(2-hydroxy-ethyl)-benzamide]: the IC50 fell in the range of 3 to 50 µM.

On to `COc1cc(-c2cc3nccc(-c4cc(F)cc(C(=O)NCCCN)c4)c3o2)cc(OC)c1OC` [Compound A61, N-(3-amino-propyl)-3-fluoro-5-[2-(3,4,5-trimethoxy-phenyl)-furo[3,2-b]pyridin-7-yl]-benzamide], for which the 50% inhibitory concentration (IC50) was in the range of 3 to 50 µM.

Consider `COc1cc(-c2cc3nccc(-c4cnc[nH]4)c3o2)cc(OC)c1OC` [Compound A91, 7-(3H-imidazol-4-yl)-2-(3,4,5-trimethoxy-phenyl)-furo[3,2-b]pyridine], for which the IC50 lay in the range of 0.1 to 0.3 µM.

For the compound `Cc1cc(OCCN)ccc1-c1cc2nccc(-c3cccc(C(=O)N[C@@H]4CCCC[C@@H]4N)c3)c2o1` [Compound A52, N-((1R,2S)-2-amino-cyclohexyl)-3-{2-[4-(2-amino-ethoxy)-2-methyl-phenyl]-furo[3,2-b]pyridin-7-yl}-benzamide], the 50% inhibitory concentration (IC50) was in the range of 0.3 to 3 µM.

`COc1cc(-c2cc3nccc(-c4cc(F)cc(C(=O)NCCN)c4)c3o2)cc(OC)c1OC` [Compound A55, N-(2-amino-ethyl)-3-fluoro-5-[2-(3,4,5-trimethoxy-phenyl)-furo[3,2-b]pyridin-7-yl]-benzamide] gave an IC50 of 0.1 to 0.3 µM.

The compound `COc1ccc(C(N)=O)cc1-c1cc2nccc(-c3ccnc(N[C@H]4CCCC[C@H]4N)c3)c2o1` [Compound A96, 3-{7-[2-((1S,2R)-2-amino-cyclohexylamino)-pyridin-4-yl]-furo[3,2-b]pyridin-2-yl}-4-methoxy-benzamide] registered an IC50 below 0.1 µM.

For the compound `COc1cc(-c2cc3nccc(-c4cccc(C(=O)NC[C@H](O)[C@@H](O)[C@H](O)[C@H](O)CO)c4)c3o2)cc(OC)c1OC` [Compound A28, N-((2S,3R,4R,5R)-2,3,4,5,6-pentahydroxy-hexyl)-3-[2-(3,4,5-trimethoxyphenyl)-furo[3,2-b]pyridin-7-yl]-benzamide], the IC50 was 3 to 50 µM.

Consider `COc1cc(-c2cc3nccc(-c4cccc(C(=O)N[C@@H]5CCCC[C@@H]5NS(C)(=O)=O)c4)c3o2)cc(OC)c1OC` [Compound A33, N-((1R,2S)-2-methanesulfonylamino-cyclohexyl)-3-[2-(3,4,5-trimethoxyphenyl)-furo[3,2-b]pyridin-7-yl]-benzamide], for which the IC50 is 3 to 50 µM.

Regarding `COc1ccc(C(N)=O)cc1-c1cc2nccc(-c3cc([C@@H](C)N)ccc3OC)c2o1` [Compound A1, 3-{7-[5-((R)-1-Amino-ethyl)-2-methoxy-phenyl]-furo[3,2-b]pyridin-2-yl}-4-methoxy-benzamide], the 50% inhibitory concentration (IC50) lay in the range of 0.1 to 0.3 µM.

In the case of `COc1ccc(C(C)O)cc1-c1ccnc2cc(-c3cc(OC)c(OC)c(OC)c3)oc12` (stereo not drawn) [Compound A21, 1-{4-methoxy-3-[2-(3,4,5-trimethoxy-phenyl)-furo[3,2-b]pyridin-7-yl]-phenyl}-ethanol], the IC50 fell in the range of 0.1 to 0.3 µM.

For `CCc1ccc(OC)c(-c2cc3nccc(-c4ccc5[nH]cnc5c4)c3o2)c1` [Compound A41, 7-(1H-benzoimidazol-5-yl)-2-(5-ethyl-2-methoxy-phenyl)-furo[3,2-b]pyridine], the half-maximal inhibitory concentration (IC50) lay in the range of 0.3 to 3 µM.

`COc1cc(-c2cc3nccc(-c4cccc(C(=O)N[C@@H]5COC[C@@H]5N)c4)c3o2)cc(OC)c1OC` [Compound A67, N-((3S,4R)-4-amino-tetrahydro-furan-3-yl)-3-[2-(3,4,5-trimethoxy-phenyl)furo[3,2-b]pyridin-7-yl]-benzamide] yielded an IC50 of 3 to 50 µM.

In turn, `CCn1cc(-c2ccnc3cc(-c4cc(C(N)=O)ccc4OC)oc23)cn1` [Compound A63, 3-[7-(1-ethyl-1H-pyrazol-4-yl)-furo[3,2-b]pyridin-2-yl]-4-methoxy-benzamide] displayed an IC50 of 0.3 to 3 µM.

With `CCc1ccc(OC)cc1-c1cc2nccc(-c3cccc(C(=O)N[C@@H]4CCCC[C@@H]4N)c3)c2o1` [Compound A42, N-((1R,2S)-2-amino-cyclohexyl)-3-[2-(2-ethyl-5-methoxy-phenyl)-furo[3,2-b]pyridin-7-yl]-benzamide], the IC50 lay within 3 to 50 µM.

Take `COc1ccc(-c2noc(=O)[nH]2)cc1-c1cc2nccc(-c3cc[nH]n3)c2o1` [Compound A105, 3-{4-methoxy-3-[7-(1H-pyrazol-3-yl)-furo[3,2-b]pyridin-2-yl]-phenyl}-4H-[1,2,4]oxadiazol-5-one]: the half-inhibitory concentration (IC50) is below 0.1 µM.

In the case of `COc1ccc(C(N)=O)cc1-c1cc2nccc(-c3cc(S(N)(=O)=O)ccc3OC)c2o1` [Compound A77, 4-methoxy-3-[7-(2-methoxy-5-sulfamoyl-phenyl)-furo[3,2-b]pyridin-2-yl]-benzamide], the 50% inhibitory concentration (IC50) was in the range of 0.3 to 3 µM.

Consider `COc1cc(-c2cc3nccc(-c4ccc(O)nc4)c3o2)cc(OC)c1OC` [Compound A38, 5-[2-(3,4,5-trimethoxy-phenyl)-furo[3,2-b]pyridin-7-yl]-pyridin-2-ol], for which the IC50 fell in the range of 0.3 to 3 µM.

As for `COc1cc(-c2cc3nccc(-c4cccc(C(=O)N[C@@H]5C[C@@H]5N)c4)c3o2)cc(OC)c1OC` [Compound A64, N-((1R,2S)-2-amino-cyclopropyl)-3-[2-(3,4,5-trimethoxy-phenyl)-furo[3,2-b]pyridin-7-yl]-benzamide], the half-inhibitory concentration (IC50) lay within 0.3 to 3 µM.

Compound `NC(=O)c1ccc(-c2cc3nccc(-c4cccc(C(=O)N[C@@H]5CCCC[C@@H]5N)c4)c3o2)c(F)c1` [Compound A73, 4-{7-[3-((1R,2S)-2-amino-cyclohexylcarbamoyl)-phenyl]-furo[3,2-b]pyridin-2-yl}-3-fluoro-benzamide] came in with a 50% inhibitory concentration (IC50) of 3 to 50 µM.

In the case of `COc1ccc(C(N)=O)cc1-c1cc2nccc(-c3ccnc(NC4CCCCC4N)c3)c2o1` (stereo not drawn) [Compound A81, 3-{7-[2-(2-amino-cyclohexylamino)-pyridin-4-yl]-furo[3,2-b]pyridin-2-yl}-4-methoxy-benzamide], the IC50 is below 0.1 µM.

`COc1ccc(C(=O)NCC(C)(C)N)cc1-c1cc2nccc(-c3c(OC)cccc3OC)c2o1` [Compound A68, N-(2-amino-2-methyl-propyl)-3-[7-(2,6-dimethoxy-phenyl)-furo[3,2-b]pyridin-2-yl]-4-methoxy-benzamide] showed a half-inhibitory concentration (IC50) of 0.3 to 3 µM.

The compound `COc1cc(-c2cc3nccc(-c4cccc(C(=O)N[C@H]5C[C@@H](N)C5)c4)c3o2)cc(OC)c1OC` [Compound A27, N-(3-amino-cyclobutyl)-3-[2-(3,4,5-trimethoxy-phenyl)-furo[3,2-b]pyridin-7-yl]-benzamide] came in with a 50% inhibitory concentration (IC50) of 0.3 to 3 µM.

Regarding `COc1ccc(Cl)c(-c2cc3nccc(-c4cccc(C(=O)N[C@@H]5CCCC[C@@H]5N)c4)c3o2)c1` [Compound A25, N-((1R,2S)-2-amino-cyclohexyl)-3-[2-(2-chloro-5-methoxy-phenyl)-furo[3,2-b]pyridin-7-yl]-benzamide], the IC50 fell in the range of 0.3 to 3 µM.
